Patent US12098144B2, “Piperazine indazole glucocorticoid receptor antagonists” (Corcept Therapeutics Incorporated, priority 2021, dated 2024)

biological target: T1, glucocorticoid receptor (Homo sapiens, UniProt P04150); assay: Hep G2 TAT Ki: inhibition of dexamethasone-induced TAT in HepG2 cells (96 well); type: cell-based; conditions: challenge of 100 nM dexamethasone, IC50 converted to Ki by Cheng and Prusoff equation
T1 construct: endogenous in cells; ATCC cat
T1 sequence (P04150 1-777): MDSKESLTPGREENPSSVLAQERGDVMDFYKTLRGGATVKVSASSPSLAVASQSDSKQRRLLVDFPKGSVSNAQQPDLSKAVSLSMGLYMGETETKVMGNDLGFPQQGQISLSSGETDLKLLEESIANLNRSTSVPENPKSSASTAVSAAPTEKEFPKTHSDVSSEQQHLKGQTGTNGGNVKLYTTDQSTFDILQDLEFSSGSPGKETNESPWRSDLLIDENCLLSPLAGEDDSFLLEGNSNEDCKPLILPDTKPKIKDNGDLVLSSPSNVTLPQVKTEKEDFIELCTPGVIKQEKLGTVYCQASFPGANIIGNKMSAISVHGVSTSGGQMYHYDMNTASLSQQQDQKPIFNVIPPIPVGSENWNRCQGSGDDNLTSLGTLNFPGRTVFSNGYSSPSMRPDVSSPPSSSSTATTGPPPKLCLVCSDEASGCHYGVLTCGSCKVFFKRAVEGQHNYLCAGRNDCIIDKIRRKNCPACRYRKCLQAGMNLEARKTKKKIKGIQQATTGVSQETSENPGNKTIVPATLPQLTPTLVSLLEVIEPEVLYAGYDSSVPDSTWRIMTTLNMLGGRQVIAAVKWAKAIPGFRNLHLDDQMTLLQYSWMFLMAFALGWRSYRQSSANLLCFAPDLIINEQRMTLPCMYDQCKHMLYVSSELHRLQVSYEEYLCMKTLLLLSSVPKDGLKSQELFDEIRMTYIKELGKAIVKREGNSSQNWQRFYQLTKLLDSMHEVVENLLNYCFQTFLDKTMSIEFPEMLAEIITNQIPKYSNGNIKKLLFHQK
Method in brief: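 Cells lysed 15 min at 4 °C; TAT enzyme reaction 2 h at 37 °C, stopped with KOH, 30 min further at 37 °C. Inhibition fitted to 4-parameter logistic.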

| Compound | Ki [nM] |
| --- | --- |
| COCCn1cc(S(=O)(=O)N2CCN(CCC(F)(F)F)C(c3cc4cnn(-c5ccc(F)cc5)c4cc3C)C2)cn1 (single isomer, unassigned) [Example 136, 1-(4-fluorophenyl)-5-(4-((1-(2-methoxyethyl)-1H-pyrazol-4-yl)sulfonyl)-1-(3,3,3-trifluoropropyl)piperazin-2-yl)-6-methyl-1H-indazole] | 57 |
| Cc1cc2c(cnn2-c2ccc(F)cc2)cc1C1CN(S(=O)(=O)CC(C)C)CCN1CCC(F)(F)F (single isomer, unassigned) [Example 137, 1-(4-fluorophenyl)-5-(4-(isobutylsulfonyl)-1-(3,3,3-trifluoropropyl)piperazin-2-yl)-6-methyl-1H-indazole] | 33 |
| Cc1cc2c(cnn2-c2ccc(F)cc2)cc1C1CN(S(=O)(=O)c2cnccc2C)CCN1CCC(F)(F)F (single isomer, unassigned) [Example 138, 1-(4-fluorophenyl)-6-methyl-5-(4-((4-methylpyridin-3-yl)sulfonyl)-1-(3,3,3-trifluoropropyl)piperazin-2-yl)-1H-indazole] | 35 |
| Cc1cc2c(cnn2-c2ccc(F)cc2)cc1C1CN(S(=O)(=O)c2ccccn2)CCN1CCC(F)(F)F (single isomer, unassigned) [Example 139, 1-(4-fluorophenyl)-6-methyl-5-(4-(pyridin-2-ylsulfonyl)-1-(3,3,3-trifluoropropyl)piperazin-2-yl)-1H-indazole] | 37 |
| Cc1cc2c(cnn2-c2ccc(F)cc2)cc1C1CN(S(=O)(=O)C2CCC2)CCN1CCC(F)(F)F (single isomer, unassigned) [Example 140, 5-(4-(cyclobutylsulfonyl)-1-(3,3,3-trifluoropropyl)piperazin-2-yl)-1-(4-fluorophenyl)-6-methyl-1H-indazole] | 47 |
| Cc1cc2c(cnn2-c2ccc(F)cc2)cc1C1CN(S(=O)(=O)c2cnn(C)c2)CCN1CC(C)C(F)(F)F (single isomer, unassigned) [Example 141, 1-(4-fluorophenyl)-6-methyl-5-(4-((1-methyl-1H-pyrazol-4-yl)sulfonyl)-1-(3,3,3-trifluoro-2-methylpropyl)piperazin-2-yl)-1H-indazole] | 14 |
| Cc1cc2c(cnn2-c2ccc(F)cc2)cc1C1CN(S(=O)(=O)c2cnn(C)c2C)CCN1CC(C)C(F)(F)F (single isomer, unassigned) [Example 142, 5-(4-((1,5-dimethyl-1H-pyrazol-4-yl)sulfonyl)-1-(3,3,3-trifluoro-2-methylpropyl)piperazin-2-yl)-1-(4-fluorophenyl)-6-methyl-1H-indazole] | 13 |
| Cc1cc2c(cnn2-c2ccc(F)cc2)cc1C1CN(S(=O)(=O)c2ccc(C#N)cc2)CCN1CC(C)C(F)(F)F (single isomer, unassigned) [Example 143, 4-((3-(1-(4-fluorophenyl)-6-methyl-1H-indazol-5-yl)-4-(3,3,3-trifluoro-2-methylpropyl)piperazin-1-yl)sulfonyl)benzonitrile] | 25 |
| CCn1cc(S(=O)(=O)N2CCN(CC(C)C(F)(F)F)C(c3cc4cnn(-c5ccc(F)cc5)c4cc3C)C2)cn1 (single isomer, unassigned) [Example 144, 5-(4-((1-ethyl-1H-pyrazol-4-yl)sulfonyl)-1-(3,3,3-trifluoro-2-methylpropyl)piperazin-2-yl)-1-(4-fluorophenyl)-6-methyl-1H-indazole] | 15 |
| Cc1cc2c(cnn2-c2ccc(F)cc2)cc1C1CN(S(=O)(=O)c2cccnc2)CCN1CC(C)C(F)(F)F (single isomer, unassigned) [Example 145, 1-(4-fluorophenyl)-6-methyl-5-(4-(pyridin-3-ylsulfonyl)-1-(3,3,3-trifluoro-2-methylpropyl)piperazin-2-yl)-1H-indazole] | 8.5 |
| Cc1nc(S(=O)(=O)N2CCN(CC(C)C(F)(F)F)C(c3cc4cnn(-c5ccc(F)cc5)c4cc3C)C2)cs1 (single isomer, unassigned) [Example 146, 4-((3-(1-(4-fluorophenyl)-6-methyl-1H-indazol-5-yl)-4-(3,3,3-trifluoro-2-methylpropyl)piperazin-1-yl)sulfonyl)-2-methylthiazole] | 7.5 |
| Cc1ncc(S(=O)(=O)N2CCN(CC(C)C(F)(F)F)C(c3cc4cnn(-c5ccc(F)cc5)c4cc3C)C2)s1 (single isomer, unassigned) [Example 147, 5-((3-(1-(4-fluorophenyl)-6-methyl-1H-indazol-5-yl)-4-(3,3,3-trifluoro-2-methylpropyl)piperazin-1-yl)sulfonyl)-2-methylthiazole] | 11 |
| CCn1ncc(S(=O)(=O)N2CCN(CC(C)C(F)(F)F)C(c3cc4cnn(-c5ccc(F)cc5)c4cc3C)C2)n1 (single isomer, unassigned) [Example 148, 5-(4-((2-ethyl-2H-1,2,3-triazol-4-yl)sulfonyl)-1-(3,3,3-trifluoro-2-methylpropyl)piperazin-2-yl)-1-(4-fluorophenyl)-6-methyl-1H-indazole] | 38 |
| Cc1cc2c(cnn2-c2ccc(F)cc2)cc1C1CN(S(=O)(=O)c2cnccc2C)CCN1CC(C)C(F)(F)F (single isomer, unassigned) [Example 149, 1-(4-fluorophenyl)-6-methyl-5-(4-((4-methylpyridin-3-yl)sulfonyl)-1-(3,3,3-trifluoro-2-methylpropyl)piperazin-2-yl)-1H-indazole] | 56 |
| Cc1cc2c(cnn2-c2ccc(F)cc2)cc1C1CN(S(=O)(=O)c2ccccn2)CCN1CC(C)C(F)(F)F (single isomer, unassigned) [Example 150, 1-(4-fluorophenyl)-6-methyl-5-(4-(pyridin-2-ylsulfonyl)-1-(3,3,3-trifluoro-2-methylpropyl)piperazin-2-yl)-1H-indazole] | 19 |
| Cc1cc2c(cnn2-c2ccc(F)cc2)cc1C1CN(S(=O)(=O)C2CCC2)CCN1CC(C)C(F)(F)F (single isomer, unassigned) [Example 151, 5-(4-(cyclobutylsulfonyl)-1-(3,3,3-trifluoro-2-methylpropyl)piperazin-2-yl)-1-(4-fluorophenyl)-6-methyl-1H-indazole] | 35 |
| Cc1cc2c(cnn2-c2ccc(F)cc2)cc1C1CN(S(=O)(=O)c2cnn(C)n2)CCN1CC1CC(F)C1 (single isomer, unassigned) [Example 156, 5-(1-((3-fluorocyclobutyl)methyl)-4-((2-methyl-2H-1,2,3-triazol-4-yl)sulfonyl)piperazin-2-yl)-1-(4-fluorophenyl)-6-methyl-1H-indazole] | 28 |
| Cc1cc2c(cnn2-c2ccc(F)cc2)cc1C1CN(S(=O)(=O)c2cnn(C)n2)CCN1CC(C)(F)F (single isomer, unassigned) [Example 157, 5-(1-(2,2-difluoropropyl)-4-((2-methyl-2H-1,2,3-triazol-4-yl)sulfonyl)piperazin-2-yl)-1-(4-fluorophenyl)-6-methyl-1H-indazole] | 43 |
| Cc1cc2c(cnn2-c2ccc(F)cc2)cc1C1CN(S(=O)(=O)c2cnn(C)n2)CCN1CC1CC1(F)F (single isomer, unassigned) [Example 160, 5-(1-((2,2-difluorocyclopropyl)methyl)-4-((2-methyl-2H-1,2,3-triazol-4-yl)sulfonyl)piperazin-2-yl)-1-(4-fluorophenyl)-6-methyl-1H-indazole] | 32 |
| Cc1cc2c(cnn2-c2ccc(F)cc2)cc1C1CN(S(=O)(=O)c2cnn(C)n2)CCN1CC(C)(C)C (single isomer, unassigned) [Example 161, 1-(4-fluorophenyl)-6-methyl-5-(4-((2-methyl-2H-1,2,3-triazol-4-yl)sulfonyl)-1-neopentylpiperazin-2-yl)-1H-indazole] | 57 |
| Cc1cc2c(cnn2-c2ccc(F)cc2)cc1C1CN(S(=O)(=O)c2cnn(C)n2)CCN1CC(C)(C)C(F)(F)F (single isomer, unassigned) [Example 163, 1-(4-fluorophenyl)-6-methyl-5-(4-((2-methyl-2H-1,2,3-triazol-4-yl)sulfonyl)-1-(3,3,3-trifluoro-2,2-dimethylpropyl)piperazin-2-yl)-1H-indazole] | 44 |
| Cc1cc2c(cnn2-c2ccc(F)c(C#N)c2)cc1C1CN(S(=O)(=O)c2cnn(C)n2)CCN1CCC(F)(F)F (single isomer, unassigned) [Example 169, 2-fluoro-5-(6-methyl-5-(4-((2-methyl-2H-1,2,3-triazol-4-yl)sulfonyl)-1-(3,3,3-trifluoropropyl)piperazin-2-yl)-1H-indazol-1-yl)benzonitrile] | 66 |
| Cc1cc2c(cnn2-c2ccc(F)c(C#N)c2)cc1C1CN(S(=O)(=O)c2cnn(C)n2)CCN1CCC(F)(F)F (single isomer, unassigned) [Example 170, 2-fluoro-5-(6-methyl-5-(4-((2-methyl-2H-1,2,3-triazol-4-yl)sulfonyl)-1-(3,3,3-trifluoropropyl)piperazin-2-yl)-1H-indazol-1-yl)benzonitrile] | 91 |
